Data on 2 compounds can be found in patent publication US10562861B2, “Carboxylic acid compounds” (Sumitomo Dainippon Pharma Co., Ltd., priority 2012, dated 2020).

The test system of assay [1] is Renca mouse tumour cells. As to the kind of experiment: Tumour growth studies in Renca, a murine syngeneic renal carcinoma tumour model. The format is in vivo. The settings on record: Balb/C mice, Renca s.c., vs 0.5% methylcellulose. On the procedure:
Experiments were conducted on female mice (Balb/C genotype, at least 5 weeks old). Renca mouse tumour cells (Cancer Chemother Pharmacol. 1995; 36 (1): 7-12) were kindly provided by Dr. T. Fujioka at Department of Urology, Iwate Medical University School of Medicine. Renca mouse tumour cells (5×10^4) were implanted subcutaneously in the flank of mice on day 0. Mice were treated with either drug vehicle (0.5% methylcellulose), the compound of Example 3 (0.3 mg/kg once a week) or the compound of Example 4 (3 mg/kg once a week) administered orally (p. o.) on days 1, 8, and 15. Tumour volumes were assessed at least twice weekly by bilateral vernier caliper measurements.
Tumour growth inhibition from the start of treatment was assessed by comparison of the differences in tumour growth rate between control and the compound of Example 3 treated groups, as shown in FIG. 9.
Tumour growth inhibition from the start of treatment was assessed by comparison of the differences in tumour growth rate between control and the compound of the Example 4 treated groups, as shown in FIG. 10.

For assay [2], the system named is CT26 mouse tumour cells. As to the kind of experiment: Survival studies in CT26, a murine syngeneic colon carcinoma tumour model. The following applies: Balb/C mice, CT26 s.c., vs control or RT. The format is in vivo. On the procedure:
Experiments were conducted on female mice (Balb/C genotype, at least 5 weeks old). CT26 mouse tumour cells (CRL-2638) were purchased from ATCC. CT26 mouse tumour cells (1×10^6) were implanted subcutaneously in the flank of mice on day 0. Mice in radiotherapy alone (RT) group and combination group were anesthetized and received radiation therapy (2 Gy) at days 7, 8, 9, 10, and 11. Mice in combination group were also treated with a compound of Example 3 (30 mg/kg once a week) administered orally (p.o.) or Example 4 (5 mg/kg once a week) administered intravenously (i. v.) on days 7, 14, 22, and 27. Tumour volumes were assessed at least twice weekly by bilateral vernier caliper measurements. Survival period was determined by the time taken for tumours to reach 4 times the volume at the time of treatment.

As to `CCC[C@@H](CCO)Nc1nc(N)nc(C)c1Cc1ccc(CN(CC(=O)O)CC(F)F)cc1OC` [Example 3, (S)-2-((4-((2-amino-4-(1-hydroxyhexan-3-ylamino)-6-methylpyrimidin-5-yl)methyl)-3-methoxybenzyl)(2,2-difluoroethyl)amino)acetic acid], the Tumour growth inhibition result in assay [1] (0.3 mg/kg once a week p.o. on days 1, 8, 15, FIG. 9) is listed as “inhibited tumour growth”. Also, the “Survival period (time for tumours to reach 4 times the volume at treatment)” value in assay [2] (RT 2 Gy days 7-11 plus 30 mg/kg once a week p.o., FIG. 12) was “survived significantly longer”.

`CCC[C@@H](CCO)Nc1nc(N)nc(C)c1Cc1ccc(CN(CC(=O)O)CC(F)(F)F)cc1OC` [Example 4, (S)-2-((4-((2-amino-4-(1-hydroxyhexan-3-ylamino)-6-methylpyrimidin-5-yl)methyl)-3-methoxybenzyl)(2,2,2-trifluoroethyl)amino)acetic acid]: in assay [1] (3 mg/kg once a week p.o. on days 1, 8, 15, FIG. 10), the Tumour growth inhibition result is “inhibited tumour growth”. For the same compound, the “Survival period (time for tumours to reach 4 times the volume at treatment)” value in assay [2] (RT 2 Gy days 7-11 plus 5 mg/kg once a week i.v., FIG. 13) was “survived significantly longer”.
